In PubChem BioAssay (NCI):
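How tested: cells in 96-well plates exposed to compound for 48 hours at five concentrations. GI50 is the concentration that inhibits growth by half. At the TGI there is no net growth.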

What was measured:
Experiment in all cases: NCI tumour cell line growth inhibition, 48 h
DMS 273 small cell lung = test system: DMS 273 small cell lung
HOP-18 NSCLC = test system: HOP-18 NSCLC
KM20L2 colon = test system: KM20L2 colon
LXFL 529 NSCLC = test system: LXFL 529 NSCLC
M19-MEL melanoma = test system: M19-MEL melanoma
XF 498 CNS = test system: XF 498 CNS
RXF-631 renal = test system: RXF-631 renal
DLD-1 colon = test system: DLD-1 colon
P388 leukemia = test system: P388 leukemia
P388/ADR leukemia = test system: P388/ADR leukemia
SN12K1 renal = test system: SN12K1 renal

Compound	TGI (DMS 273 small cell lung) [µM]	TGI (HOP-18 NSCLC) [µM]	TGI (KM20L2 colon) [µM]	TGI (LXFL 529 NSCLC) [µM]	TGI (M19-MEL melanoma) [µM]	TGI (XF 498 CNS) [µM]	TGI (RXF-631 renal) [µM]	TGI (DLD-1 colon) [µM]	TGI (P388 leukemia) [µM]	TGI (P388/ADR leukemia) [µM]	TGI (SN12K1 renal) [µM]	GI50 (KM20L2 colon) [µM]
[N-]=[N+]=CC(=O)C1(C(=O)C=[N+]=[N-])CC1	> 100	> 100	> 100	> 100	> 100	> 100						
CCCCn1c(-c2ccccc2)cs/c1=N\N=C1C=C(C(C)(C)C)C(=O)C(C(C)(C)C)=C1	> 100		> 100	> 100	> 100	> 100	> 100					
O=c1oc2cc(O)ccc2c2[nH]c3cc(O)ccc3c12	88.6	> 100	> 100	> 100	98.7	73.6		74.8				
CC1CC(=O)Nc2ccc(Cl)cc2N1C(=O)CN1CCC(CCCCN(C)C)CC1 (stereo not drawn)	> 100	> 100	> 100	> 100			> 100	> 100				
Oc1ccc(-c2c3ccccc3c(-c3ccc(O)cc3)c3ccccc23)cc1	> 100	> 100	> 100	> 100	> 100	> 100		> 100				
COC1(OC)CC2C(=O)N(Cc3ccccc3)C1C(S(=O)(=O)c1ccccc1)C2C(C)S(=O)(=O)c1ccccc1 (stereo not drawn)	> 100	> 100	> 100	> 100	> 100	> 100		> 100				
Cc1ccc2nc(N)[nH]c(=O)c2c1Sc1ccncc1	> 100	> 100	> 100	> 100	> 100	> 100		> 100				
CCOC(=O)/C=C/n1c2ccccc2c(=O)c2cc(OC)ccc21	> 100	> 100	> 100	> 100	> 100	> 100	> 100	> 100				
CCN(CC)CC1CCCCN1CC(=O)N1c2cc(Cl)ccc2NC(=O)CC1C (stereo not drawn)	> 100		> 100	> 100	> 100	> 100		> 100				
CC1(CO)C(O)CCC2(C)C1CCC1CC3CC12CCC3(O)CO (stereo not drawn)	> 100	> 100	> 100		> 100	> 100		> 100	6.66	12.6	> 100	
c1ccc2c(c1)nnn2CNc1ccc(N2CCCCC2)cc1	> 100	> 100	> 100	> 100		> 100		> 100				
CC(=O)Nc1ccc(-c2nnc(SCC(=O)Nc3cccc(C)c3)o2)cc1	23	29.7	22	22.8	24.9			23.1				
Cc1ccc(S(=O)(=O)NC(=O)C2S(=O)(=O)OCCOS2(=O)=O)cc1	> 100			> 100	> 100	> 100	> 100	> 100				
O=C([CH-]C(=O)c1ccccc1)c1ccccc1.[C-]#[O+].[C-]#[O+].[Ir]			> 100									39.7
O=C(Nc1ccccc1[N+](=O)[O-])/C(=N/Nc1cccc(Cl)c1)c1c(O)c2ccccc2oc1=O	> 100	> 100	> 100	> 100	> 100			> 100				
CCOC(=O)/C(Br)=C1\OC(=O)c2ccccc2-c2ccccc21	> 100	> 100		99	> 100	> 100	> 100	> 100				
Cc1cc(N(CCC#N)S(=O)(=O)c2ccccc2)ccc1C=Nc1cccc(C(=O)O)c1		> 100	> 100	> 100	> 100		> 100					
CC(C)OP(=O)(OC(C)C)C(=NCCO)NNc1ccc([N+](=O)[O-])cc1	> 100		> 100	> 100	> 100	> 100		> 100				
